From ChEMBL document CHEMBL1201862, “PubChem BioAssay data set” (2004)
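Five compound concentrations were applied to cells in 96-well plates for 48 hours; endpoints were derived by simple linear interpolation of the resulting dose-response curve. Here, GI50 denotes the concentration required for 50% inhibition of growth.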 Activity calls are given as the source filed them. Cut-off read from the data, not from the text of the source: active = GI50 up to about 1.1 µM and inactive = higher.

Tests used:
Experiment in all cases: inhibition of tumour cell growth, NCI panel, 48 h
[1] = tested on: 786-0
[2] = tested on: A549
[3] = tested on: ACHN
[4] = tested on: BT-549
[5] = tested on: CAKI-1
[6] = tested on: CCRF-CEM
[7] = tested on: COLO 205
[8] = tested on: DU-145
[9] = tested on: EKVX
[10] = tested on: HCC 2998
[11] = tested on: HCT-116
[12] = tested on: HCT-15
[13] = tested on: HL-60
[14] = tested on: HOP-62
[15] = tested on: HT-29
[16] = tested on: Hs-578T
[17] = tested on: IGROV-1
[18] = tested on: K562
[19] = tested on: LOX IMVI
[20] = tested on: M14
[21] = tested on: MCF7
[22] = tested on: MDA-MB-231
[23] = tested on: MDA-MB-435
[24] = tested on: MDA-N
[25] = tested on: MOLT-4
[26] = tested on: Malme-3M
[27] = tested on: NCI-H226
[28] = tested on: NCI-H23
[29] = tested on: NCI-H460
[30] = tested on: NCI-H522
[31] = tested on: NCI/ADR-RES
[32] = tested on: OVCAR-3
[33] = tested on: OVCAR-4
[34] = tested on: OVCAR-5
[35] = tested on: OVCAR-8
[36] = tested on: PC-3
[37] = tested on: RPMI-8226
[38] = tested on: RXF 393
[39] = tested on: SF-268
[40] = tested on: SF-295
[41] = tested on: SF-539
[42] = tested on: SK-MEL-28
[43] = tested on: SK-MEL-2
[44] = tested on: SK-MEL-5
[45] = tested on: SK-OV-3
[46] = tested on: SN12C
[47] = tested on: SNB-19
[48] = tested on: SNB-75
[49] = tested on: SR
[50] = tested on: SW-620
[51] = tested on: T47D
[52] = tested on: TK-10
[53] = tested on: UACC-257
[54] = tested on: UO-31
[55] = tested on: A498
[56] = tested on: HOP-92
[57] = tested on: KM12
[58] = tested on: U-251
[59] = tested on: UACC-62

With `CC(=O)NN(c1ccccc1)C1CCN(c2ccccc2)N1C(C)=O` (configuration not stated) the GI50 [1] was > 10 µM (inactive), the GI50 [2] was > 10 µM (inactive) and the GI50 [3] was 2.82 µM (inactive). The GI50 [4] was > 10 µM (inactive), the GI50 [5] was 4.12 µM (inactive) and the GI50 [6] was > 10 µM (inactive). The GI50 [7] was 3.13 µM (inactive), the GI50 [8] was > 10 µM (inactive) and the GI50 [9] was > 10 µM (inactive). The GI50 [10] was 3.82 µM (inactive), the GI50 [11] was 9.84 µM (inactive) and the GI50 [12] was 0.881 µM. For the same molecule, the GI50 [13] was 3.69 µM (inactive), the GI50 [14] was > 10 µM (inactive) and the GI50 [15] was 5.74 µM (inactive). The GI50 [16] was > 10 µM (inactive), the GI50 [17] was > 10 µM (inactive) and the GI50 [18] was 2.32 µM (inactive). For the same molecule, the GI50 [19] was 4.58 µM (inactive), the GI50 [20] was > 10 µM (inactive) and the GI50 [21] was 8.91 µM (inactive). The GI50 [22] was > 10 µM (inactive), the GI50 [23] was 3.18 µM (inactive) and the GI50 [24] was 9.16 µM (inactive). The GI50 [25] was 4.74 µM (inactive), the GI50 [26] was 3.48 µM (inactive) and the GI50 [27] was > 10 µM (inactive). The GI50 [28] was > 10 µM (inactive), the GI50 [29] was > 10 µM (inactive) and the GI50 [30] was 7.53 µM (inactive). For the same molecule, the GI50 [31] was 5.52 µM (inactive), the GI50 [32] was > 10 µM (inactive) and the GI50 [33] was > 10 µM (inactive). The GI50 [34] was > 10 µM (inactive), the GI50 [35] was > 10 µM (inactive) and the GI50 [36] was 4 µM (inactive). The GI50 [37] was 8.71 µM (inactive), the GI50 [38] was > 10 µM (inactive) and the GI50 [39] was 5.07 µM (inactive). For the same molecule, the GI50 [40] was 3.5 µM (inactive), the GI50 [41] was 4.85 µM (inactive) and the GI50 [42] was > 10 µM (inactive). The GI50 [43] was > 10 µM (inactive), the GI50 [44] was > 10 µM (inactive) and the GI50 [45] was > 10 µM (inactive). For the same molecule, the GI50 [46] was > 10 µM (inactive), the GI50 [47] was > 10 µM (inactive) and the GI50 [48] was > 10 µM (inactive). For the same molecule, the GI50 [49] was 6.25 µM (inactive), the GI50 [50] was 0.889 µM (active) and the GI50 [51] was > 10 µM (inactive). The GI50 [52] was > 10 µM (inactive), the GI50 [53] was > 10 µM (inactive) and the GI50 [54] was 3.1 µM (inactive).
`CN(CCCN(C)CCc1ccc(Cl)c(Cl)c1)CCCN1CCCC1` was tested, and the GI50 [1] was 1.26 µM (inactive), the GI50 [55] was 1.76 µM (inactive) and the GI50 [2] was 2.97 µM (inactive). For the same molecule, the GI50 [3] was 7.11 µM (inactive), the GI50 [4] was 6.03 µM (inactive) and the GI50 [5] was 2.37 µM (inactive). For the same molecule, the GI50 [6] was 0.458 µM (active), the GI50 [7] was 2.28 µM (inactive) and the GI50 [8] was 8.71 µM (inactive). The GI50 [9] was 3.35 µM (inactive), the GI50 [10] was 0.305 µM (active) and the GI50 [11] was 1.73 µM (inactive). The GI50 [12] was 2.31 µM, the GI50 [13] was 1.62 µM (inactive) and the GI50 [14] was 2.86 µM (inactive). The GI50 [56] was 2.13 µM (inactive), the GI50 [15] was 0.55 µM (active) and the GI50 [16] was 1.48 µM (inactive). For the same molecule, the GI50 [17] was 3.11 µM (inactive), the GI50 [18] was 0.532 µM (active) and the GI50 [57] was 2.61 µM (inactive). For the same molecule, the GI50 [19] was 1.52 µM (inactive), the GI50 [20] was 1.52 µM (inactive) and the GI50 [21] was 1.78 µM (inactive). The GI50 [22] was 1.33 µM (inactive), the GI50 [23] was 0.531 µM (active) and the GI50 [24] was 1.31 µM (inactive). For the same molecule, the GI50 [25] was 0.908 µM (active), the GI50 [26] was 2.16 µM (inactive) and the GI50 [27] was 2.56 µM (inactive). For the same molecule, the GI50 [28] was 3.31 µM (inactive), the GI50 [29] was 2.27 µM (inactive) and the GI50 [30] was 1.56 µM (inactive). The GI50 [31] was 6.08 µM (inactive), the GI50 [32] was 3.72 µM (inactive) and the GI50 [33] was 7.28 µM (inactive). For the same molecule, the GI50 [34] was 3.3 µM (inactive), the GI50 [35] was 2.82 µM (inactive) and the GI50 [36] was 3.35 µM (inactive). The GI50 [37] was 0.228 µM (active), the GI50 [38] was 1.61 µM (inactive) and the GI50 [39] was 2.12 µM (inactive). The GI50 [40] was 2.28 µM (inactive), the GI50 [41] was 2.88 µM (inactive) and the GI50 [42] was 1.5 µM (inactive). For the same molecule, the GI50 [43] was 1.83 µM (inactive), the GI50 [44] was 2.32 µM (inactive) and the GI50 [45] was 10.2 µM (inactive). The GI50 [46] was 3.12 µM (inactive), the GI50 [47] was 3.61 µM (inactive) and the GI50 [48] was 2.72 µM (inactive). For the same molecule, the GI50 [50] was 2.26 µM (inactive), the GI50 [51] was 2.34 µM (inactive) and the GI50 [52] was 2.05 µM (inactive). For the same molecule, the GI50 [58] was 1.92 µM (inactive), the GI50 [53] was 1.83 µM (inactive) and the GI50 [59] was 1.93 µM (inactive). The GI50 [54] was 1.23 µM (inactive).
